Reference: the supplement of paper PMC11208160

Assay: recombinant UMI read abundance after kanamycin selection (control-corrected) (log10(CPM+1)); higher = more efficient recombination; extreme values may be limits of the assay; sequences stand for … in AGTGCAGAGAAAATCGGCCAGTTTTCTCTGCCTGCAGTCCGCATGCCGTGGGACCCCTTGGGTTCTAACCTGTTGCCTAGATTTATGCAGCGGACTGCCTTTCTCCCAAAGTGATAAACCGG…AGGTTGGTTTCACT; site = the 11-nt donor
Method in brief: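 Under IPTG (0.07 mM) plus kanamycin, or without selection, Escherichia coli carrying a UMI-tagged donor and donor-binding-loop pair library and a target plasmid for the IS621 bridge recombinase were plated in two replicates. Recombinant UMIs were PCR-amplified across the donor–target junction and sequenced. Counts were converted to CPM, averaged over replicates, scaled by control-derived factors and reported as log10(CPM+1).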
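Also: IS621 bridge recombinase in Escherichia coli cells against a fixed T5 target plasmid.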

“ATACGGCCATGGACCGGTTTTCCCGGTAATCCGTATTTGAC (site ATACGGCCTGT)” and “ATACGGCCATGGACCGGTTTTCCCGGTAATCCGTATTTGAC (site ATAGGGCCTGT)” are the same in “recombinant UMI read abundance (log10)” value: 0 for the first, 0 for the second.

Going from “ATACGGCCATGGACCGGTTTTCCCGGTAATCCGTATTTGAC (site ATATGGCCTGT)” to “ATACTAACATGGACCGGTTTTCCCGGTAATCCGTATTTGGA (site ATACTAACTTC)”, the “recombinant UMI read abundance (log10)” value rises from 0 to 1.2.

First: ATACTAACATGGACCGGTTTTCCCGGTAATCCGTATTTGGA (site CTACTAACTTC)
Second: ATACTAACATGGACCGGTTTTCCCGGTAATCCGTATTTGGA (site GTACTAACTTC)
The “recombinant UMI read abundance (log10)” value of the first is higher: 0.853 for the first, 0.275 for the second.

First: ATACTAACATGGACCGGTTTTCCCGGTAATCCGTATTTGGA (site TTACTAACTTC)
Second: ATACTGGCATGGACCGGTTTTCCCGGTAATCCGTATTTGTT (site ATACTGGCTAA)
The “recombinant UMI read abundance (log10)” value of the first is higher: 2.05 for the first, 0.589 for the second.

Going from “ATAGACTCATGGACCGGTTTTCCCGGTAATCCGTATTTGGT (site ATAGACTCTAC)” to “ATAGCATCATGGACCGGTTTTCCCGGTAATCCGTATTTGAC (site ATAGCATCTGT)”, the “recombinant UMI read abundance (log10)” value rises from 2.79 to 3.53.

First: ATAGCATCATGGACCGGTTTTCCCGGTAATCCGTATTTGAC (site CTAGTATCTGT)
Second: ATAGGAGCATGGACCGGTTTTCCCGGTAATCCGTATTTGGC (site ATAGGAGCTGC)
The “recombinant UMI read abundance (log10)” value of the first is lower: 1.8 for the first, 2.91 for the second.

Compared with “ATAGTATCATGGACCGGTTTTCCCGGTAATCCGTATTTGCG (site ACAGTATCTTG)”, “ATAGTATCATGGACCGGTTTTCCCGGTAATCCGTATTTGCG (site ATAGTATCTCG)” is higher in “recombinant UMI read abundance (log10)” value: 1.46 for the first, 3.07 for the second.

“ATAGTTTCATGGACCGGTTTTCCCGGTAATCCGTATTTGAC (site ATAGTTTCTGT)” and “ATAGTTTCATGGACCGGTTTTCCCGGTAATCCGTATTTGAC (site CTAGTATCTGT)” are within 0.2 log units of each other in “recombinant UMI read abundance (log10)” value: 2.62 for the first, 2.45 for the second.

First: ATATCGGCATGGACCGGTTTTCCCGGTAATCCGTATTTGGT (site ATATCGGCTAC)
Second: ATATGACCATGGACCGGTTTTCCCGGTAATCCGTATTTGAC (site ATATGACCTGT)
The “recombinant UMI read abundance (log10)” value of the first is higher: 0.889 for the first, 0 for the second.

Going from “ATATGATCATGGACCGGTTTTCCCGGTAATCCGTATTTGGG (site ATATGATCTCC)” to “ATATGGCCATGGACCGGTTTTCCCGGTAATCCGTATTTGAC (site ATAAGGCCTGT)”, the “recombinant UMI read abundance (log10)” value falls from 1.26 to 0.

“ATATGGCCATGGACCGGTTTTCCCGGTAATCCGTATTTGAC (site ATACGGCCTGT)” and “ATATGGCCATGGACCGGTTTTCCCGGTAATCCGTATTTGAC (site ATAGGGCCTGT)” are the same in “recombinant UMI read abundance (log10)” value: 0 for the first, 0 for the second.

First: ATATGGCCATGGACCGGTTTTCCCGGTAATCCGTATTTGAC (site ATATGGCCTGT)
Second: ATATTCGCATGGACCGGTTTTCCCGGTAATCCGTATTTGCT (site ATATTCGCTAG)
The “recombinant UMI read abundance (log10)” value of the first is lower: 0 for the first, 2.58 for the second.

Going from “ATCAAAGCATGGACCGGTTTTCCCGGTAATCCGTATTTGAG (site ATCAAAGCTCT)” to “ATCAAAGCATGGACCGGTTTTCCCGGTAATCCGTATTTGAG (site ATCCAAGCTCT)”, the “recombinant UMI read abundance (log10)” value falls from 2.17 to 0.889.

“ATCAAAGCATGGACCGGTTTTCCCGGTAATCCGTATTTGAG (site ATCGAAGCTCT)” and “ATCAAAGCATGGACCGGTTTTCCCGGTAATCCGTATTTGAG (site ATCTAAGCTCT)” are within 0.2 log units of each other in “recombinant UMI read abundance (log10)” value: 0.781 for the first, 0.855 for the second.

Going from “ATCACATCATGGACCGGTTTTCCCGGTAATCCGTATTTGCG (site ATCACATCTCG)” to “ATCAGACCATGGACCGGTTTTCCCGGTAATCCGTATTTGCA (site ATCAGACCTTG)”, the “recombinant UMI read abundance (log10)” value falls from 2.31 to 0.

“ATCAGGCCATGGACCGGTTTTCCCGGTAATCCGTATTTGAC (site ATAAGGCCTGT)” and “ATCAGGCCATGGACCGGTTTTCCCGGTAATCCGTATTTGAC (site ATCAGGCCTGT)” are the same in “recombinant UMI read abundance (log10)” value: 0 for the first, 0 for the second.

“ATCAGGCCATGGACCGGTTTTCCCGGTAATCCGTATTTGAC (site ATGAGGCCTGT)” and “ATCAGGCCATGGACCGGTTTTCCCGGTAATCCGTATTTGAC (site ATTAGGCCTGT)” are the same in “recombinant UMI read abundance (log10)” value: 0 for the first, 0 for the second.

“ATCAGGCCATGGACCGGTTTTCCCGGTAATCCGTATTTGAG (site ATCAGGCCTCT)” and “ATCATGCCATGGACCGGTTTTCCCGGTAATCCGTATTTGCC (site ATCATGCCTGG)” are the same in “recombinant UMI read abundance (log10)” value: 0 for the first, 0 for the second.

Compared with “ATCATTGCATGGACCGGTTTTCCCGGTAATCCGTATTTGAC (site ATCATTGCTGT)”, “ATCATTTCATGGACCGGTTTTCCCGGTAATCCGTATTTGCA (site ATCATTTCTTG)” is higher in “recombinant UMI read abundance (log10)” value: 1.48 for the first, 1.73 for the second.

Compared with “ATCCAAGCATGGACCGGTTTTCCCGGTAATCCGTATTTGAC (site ATCCAAGCTAT)”, “ATCCAAGCATGGACCGGTTTTCCCGGTAATCCGTATTTGAC (site ATCCAAGCTCT)” is lower in “recombinant UMI read abundance (log10)” value: 0.937 for the first, 0.0101 for the second.

First: ATCCAAGCATGGACCGGTTTTCCCGGTAATCCGTATTTGAC (site ATCCAAGCTGT)
Second: ATCCAAGCATGGACCGGTTTTCCCGGTAATCCGTATTTGAC (site ATCCAAGCTTT)
The “recombinant UMI read abundance (log10)” value of the first is higher: 1.73 for the first, 0.767 for the second.

Compared with “ATCCAAGCATGGACCGGTTTTCCCGGTAATCCGTATTTGAG (site AACCAAGCTCT)”, “ATCCAAGCATGGACCGGTTTTCCCGGTAATCCGTATTTGAG (site ACCCAAGCTCT)” is higher in “recombinant UMI read abundance (log10)” value: 0.0115 for the first, 0.646 for the second.

“ATCCAAGCATGGACCGGTTTTCCCGGTAATCCGTATTTGAG (site AGCCAAGCTCT)” and “ATCCAAGCATGGACCGGTTTTCCCGGTAATCCGTATTTGAG (site ATACAAGCTCT)” are within 0.2 log units of each other in “recombinant UMI read abundance (log10)” value: 0.194 for the first, 0.0267 for the second.

Going from “ATCCAAGCATGGACCGGTTTTCCCGGTAATCCGTATTTGAG (site ATCAAAGCTCT)” to “ATCCAAGCATGGACCGGTTTTCCCGGTAATCCGTATTTGAG (site ATCCAAACTCT)”, the “recombinant UMI read abundance (log10)” value rises from 0.429 to 1.09.

First: ATCCAAGCATGGACCGGTTTTCCCGGTAATCCGTATTTGAG (site ATCCAACCTCT)
Second: ATCCAAGCATGGACCGGTTTTCCCGGTAATCCGTATTTGAG (site ATCCAAGCTAT)
The “recombinant UMI read abundance (log10)” value of the first is lower: 0.00996 for the first, 1.64 for the second.

“ATCCAAGCATGGACCGGTTTTCCCGGTAATCCGTATTTGAG (site ATCCAAGCTCA)” and “ATCCAAGCATGGACCGGTTTTCCCGGTAATCCGTATTTGAG (site ATCCAAGCTCC)” are within 0.2 log units of each other in “recombinant UMI read abundance (log10)” value: 0.209 for the first, 0.0127 for the second.

First: ATCCAAGCATGGACCGGTTTTCCCGGTAATCCGTATTTGAG (site ATCCAAGCTCG)
Second: ATCCAAGCATGGACCGGTTTTCCCGGTAATCCGTATTTGAG (site ATCCAAGCTCT)
The “recombinant UMI read abundance (log10)” value of the first is lower: 0.141 for the first, 0.799 for the second.

First: ATCCAAGCATGGACCGGTTTTCCCGGTAATCCGTATTTGAG (site ATCCAAGCTGT)
Second: ATCCAAGCATGGACCGGTTTTCCCGGTAATCCGTATTTGAG (site ATCCAAGCTTT)
The “recombinant UMI read abundance (log10)” value of the first is lower: 0 for the first, 0.757 for the second.

First: ATCCAAGCATGGACCGGTTTTCCCGGTAATCCGTATTTGAG (site ATCCAATCTCT)
Second: ATCCAAGCATGGACCGGTTTTCCCGGTAATCCGTATTTGAG (site ATCCACGCTCT)
The “recombinant UMI read abundance (log10)” value of the first is higher: 0.773 for the first, 0.0466 for the second.

Going from “ATCCAAGCATGGACCGGTTTTCCCGGTAATCCGTATTTGAG (site ATCCAGGCTCT)” to “ATCCAAGCATGGACCGGTTTTCCCGGTAATCCGTATTTGAG (site ATCCATGCTCT)”, the “recombinant UMI read abundance (log10)” value falls from 0.356 to 0.0106.

“ATCCAAGCATGGACCGGTTTTCCCGGTAATCCGTATTTGAG (site ATCCCAGCTCT)” and “ATCCAAGCATGGACCGGTTTTCCCGGTAATCCGTATTTGAG (site ATCCGAGCTCT)” are within 0.2 log units of each other in “recombinant UMI read abundance (log10)” value: 0.0104 for the first, 0.00838 for the second.

Compared with “ATCCAAGCATGGACCGGTTTTCCCGGTAATCCGTATTTGAG (site ATCCTAGCTCT)”, “ATCCAAGCATGGACCGGTTTTCCCGGTAATCCGTATTTGAG (site ATCGAAGCTCT)” is lower in “recombinant UMI read abundance (log10)” value: 0.357 for the first, 0.00681 for the second.

Going from “ATCCAAGCATGGACCGGTTTTCCCGGTAATCCGTATTTGAG (site ATCTAAGCTCT)” to “ATCCAAGCATGGACCGGTTTTCCCGGTAATCCGTATTTGAG (site ATGCAAGCTCT)”, the “recombinant UMI read abundance (log10)” value falls from 0.231 to 0.0198.

Compared with “ATCCAAGCATGGACCGGTTTTCCCGGTAATCCGTATTTGAG (site ATTCAAGCTCT)”, “ATCCAAGCATGGACCGGTTTTCCCGGTAATCCGTATTTGAG (site CTCCAAGCTCT)” is higher in “recombinant UMI read abundance (log10)” value: 0.0155 for the first, 0.656 for the second.

Going from “ATCCAAGCATGGACCGGTTTTCCCGGTAATCCGTATTTGAG (site GTCCAAGCTCT)” to “ATCCAAGCATGGACCGGTTTTCCCGGTAATCCGTATTTGAG (site TTCCAAGCTCT)”, the “recombinant UMI read abundance (log10)” value rises from 0.00952 to 1.17.

Compared with “ATCCAAGCATGGACCGGTTTTCCCGGTAATCCGTATTTGAT (site ATCCAAGCTAT)”, “ATCCAAGCATGGACCGGTTTTCCCGGTAATCCGTATTTGAT (site ATCCAAGCTCT)” is lower in “recombinant UMI read abundance (log10)” value: 1.36 for the first, 0.233 for the second.

First: ATCCAAGCATGGACCGGTTTTCCCGGTAATCCGTATTTGAT (site ATCCAAGCTGT)
Second: ATCCAAGCATGGACCGGTTTTCCCGGTAATCCGTATTTGAT (site ATCCAAGCTTT)
The “recombinant UMI read abundance (log10)” value of the first is higher: 1.37 for the first, 0.0123 for the second.

In the case of “ATCCAAGCATGGACCGGTTTTCCCGGTAATCCGTATTTGCG (site ATCCAAGCTCA)”, the “recombinant UMI read abundance (log10)” value is reported as 0.0396.
